This is an account of results in patent publication EP0263493A2, “Pharmaceutic preparation to improve the gastro-intestinal resorption” (priority 1986, dated 1988).

Data set [1] in a line: Antibiotic plasma level and bioavailability after oral or enteral (duodenal) administration, rats (bioassay with E. coli 1346). The text has this:
Eine erste in vivo-Testanordnung war wie folgt: Als Versuchsobjekte wurden Menschen und Ratten eingesetzt, die ein β-Lactam-Antibiotikum sowohl oral als auch enteral erhielten. Für die orale Verabreichung wurden die Antibiotika in destilliertem Wasser oder in einem Träger wie Witepsol H15 allein oder zusammen mit CAPMUL MCM 90 und einem Resorptionsverstärker wie Natriumchenodeoxycholat (NaCDC) oder Chenodeoxycholsäure oder Natriumdeoxycholat (NaDC) oder Deoxycholsäure verwendet. In de gleichen Weise wurden die Antibiotika für die enterale Verabreichung hergerichtet und duodenal verabreicht.
Plasmaspiegel der Antibiotika wurden im Blut aus der Armvene des Menschen und der Schwanzvene der Ratte nach Zentrifugieren bestimmt. Die Antibiotika-enthaltenden Blutproben von Ratten wurden durch Bioassay auf einer Nunc-Platte analysiert; E. coli 1346, über Nacht auf einer Antibiotika--Agar Nr. 1-Kultur kultiviert wurde mit Kochsalzlösung gewaschen, wobei eine Suspension mit 90% Durchlässigkeit auf einem Bausch und Lomb-Spectronic 20 (650 nm) hergestellt wurde. 16 ml der erhaltenen Suspension wurden zu 600 ml geschmolzenem Antibiotika-Agar Nr. 1 gegeben, 200 ml des beimpften Agars wurden auf jede Nunc-Platte (243 × 243 ×18 mm) gegeben. Die Agarplatten wurden ausgestanzt, so dass […] Proben in jede Höhlung gegeben werden konnten.
Bei den vorstehend beschriebenen Versuchen wurden Lösungen des Wirkstoffs in destilliertem Wasser bei Raumtemperatur hergestellt und sofern ein Resorptionsverstärker anwesend war, dieser in feinverteilter Form langsam eingeführt, wobei eine feinteilige Suspension erhalten wurde.

In the next data set the test system is Ratten. The data set can be described thus: Insulin effect on blood glucose level after injection into the duodenum of fasted, anaesthetised rats. Type of data set: in vivo. The settings on record: presence of NaCDC in the insulin preparations, summary of Tabelle 2. The text has this:
In dieser Versuchsanordnung wurden Ratten über Nacht fasten gelassen, anästhesiert und der Wirkstoff durch Injektion in das Duodenum verabreicht. Blutproben aus dem Schwanz wurden zu verschiedenen Zeiten entnommen und auf chemisch vorbehandeltem Papier (Chemistrip bg. Boehringer Mannheim Diagnostics) mittels eines Accucheck bg Blutglukosemonitors (Biodynamics, Baltimore) ausgewertet.

Where [2] appears, read: given with Natriumchenodeoxycholat instead of Wasser, summary of Tabelle 1.

As to `CC1(C)S[C@@H]2[C@H](/N=C/N3CCCCCC3)C(=O)N2[C@H]1C(=O)O` [Amdinocillin], the “Spiegel des Antibiotikums” value in data set [1] (in vivo) is “signifikant höhere Spiegel”. Take `NC(=O)OC[C@@H]1[C@H](NC(=O)/C(=N\OCC(=O)O)c2csc(N)n2)C(=O)N1S(=O)(=O)O` [Carumonam]: in data set [1] (setting [2]), the “Spiegel des Antibiotikums” value is listed as “signifikant höhere Spiegel”. As to `Cn1nnnc1SCC1=C(C(=O)O)N2C(=O)[C@@H](NC(=O)[C@H](O)c3ccccc3)[C@H]2SC1` [Cefamandol], in data set [1] (setting [2]), the “Spiegel des Antibiotikums” value was “signifikant höhere Spiegel”.

As to `CO/N=C(\C(=O)N[C@@H]1C(=O)N2C(C(=O)O)=C(CSc3nc(=O)c(=O)[nH]n3C)CS[C@H]12)c1csc(N)n1` [Ceftriaxon], in data set [1] (in vivo), the “Resorption von Ceftriaxon” value was “synergistisch verstärkt”, the “Spiegel des Antibiotikums” value was “signifikant höhere Spiegel” and the “Spiegel von Ceftriaxon” value was “erhöht”. For `CO[C@@]1(NC(=O)C(C(=O)O)c2ccc(O)cc2)C(=O)N2C(C(=O)O)=C(CSc3nnnn3C)CO[C@@H]21` (stereo partly drawn) [Moxalactam], the “Spiegel des Antibiotikums” value in data set [1] (in vivo) is given as “signifikant höhere Spiegel”.

For the compound `C[C@H](CCC(=O)O)[C@H]1CC[C@H]2[C@@H]3[C@H](O)C[C@@H]4C[C@H](O)CC[C@]4(C)[C@H]3CC[C@]12C` [NaCDC, Natriumchenodeoxycholat], in the data set on Ratten, the Blutzucker result is listed as “signifikanten zeitweisen Verminderung des Blutzuckers”. For `C[C@@H](O)[C@H]1C(=O)N2C(C(=O)O)=C(SCCN)C[C@H]12` [Thienamycin], the “Spiegel des Antibiotikums” value in data set [1] (in vivo) is “signifikant höhere Spiegel”.
